The test concerns the target T1, Kv7.2 (Homo sapiens, UniProt O43526).
T1 construct: expressed in transfected cells
As to the kind of experiment: Activation of Kv7.2 (in vitro assay, concentration response curve). Type of test: cell-based. Conditions: for Emax: Kv7.2 activation max %; for pEC50: activation of Kv7.2. In outline: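 EC50 is the half-maximal effective concentration, relative to the Emax observed for each compound in this in vitro assay. It was derived from concentration–response curves of the agonistic effect measured over a series of concentrations.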

Among the data in patent US20250074901A1, “NOVEL HETEROARYL COMPOUNDS” (ICAGEN, LLC, priority 2021, published 2025) are Emax and EC50 values, retold here.

pEC50: −log10 of the molar value.

In the case of `O=C(NCc1ccnc(OC(F)F)c1)NC1CC1(F)F` (stereo not drawn) [Example 173, 1-(2,2-difluorocyclopropyl)-3-[[2-(difluoromethoxy)pyridin-4-yl]methyl]urea], the Emax – broadly, the maximal effect, on the per cent scale that the assay sets – was found to be 57% and the negative logarithm of the EC50 (pEC50) (as a rule, the negative decadic logarithm of the EC50, by convention in mol/L) is 5.36.
For `O=C(NCc1ccnc(OC(F)F)c1)N[C@H]1[C@@H]2CCC(F)(F)[C@@H]21` [Example 174, 1-[(1S,5R,6S)-2,2-difluoro-6-bicyclo[3.1.0]hexanyl]-3-[[2-(difluoromethoxy)pyridin-4-yl]methyl]urea], in that order: 51% and 6.70.
In turn, `O=C(NCc1ccnc(OC(F)F)c1)NC1(C(F)(F)F)CC1` [Example 175, 1-[[2-(difluoromethoxy)pyridin-4-yl]methyl]-3-[I-(trifluoromethyl)cyclopropyl]urea] gave a maximal effect (Emax) of 50% and a pEC50 of 5.08.
`O=C(NCc1ccnc(OC(F)F)c1)NC1(C23CC(F)(C2)C3)CC1` [Example 177, 1-[[2-(difluoromethoxy)pyridin-4-yl]methyl]-3-[1-(3-fluoro-1-bicyclo[1.1.1]pentanyl)cyclopropyl]urea] had a maximal effect (Emax) of 43% and a negative-log EC50 (pEC50) of 5.85.
`O=C(NCc1ccnc(OC(F)F)c1)NC12CC(C(F)(F)F)(C1)C2` [Example 178, 1-[[2-(difluoromethoxy)pyridin-4-yl]methyl]-3-[3-(trifluoromethyl)-1-bicyclo[1.1.1]pentanyl]urea]: the Emax amounted to 62% and the pEC50 is 5.73.
For `O=C(NCc1ccnc(OCC(F)(F)F)c1)N[C@H]1C[C@H](C(F)(F)F)C1` [Example 179, 1-[[2-(2,2,2-trifluoroethoxy)pyridin-4-yl]methyl]-3-[(1r,3r)-3-(trifluoromethyl)cyclobutyl]urea], in that order: 48% and 7.70.
As to `O=C(NCc1ccnc(OCC(F)(F)F)c1)NC12CCC(F)(CC1)CC2` [Example 180, 1-(4-fluoro-1-bicyclo[2.2.2]octanyl)-3-[[2-(2,2,2-trifluoroethoxy)pyridin-4-yl]methyl]urea], the Emax came to 72% and the pEC50 is 6.51.
For `O=C(NCc1ccnc(OC(F)F)c1)NCC1CC(F)(F)C1` [Example 181, 1-[(3,3-difluorocyclobutyl)methyl]-3-[[2-(difluoromethoxy)pyridin-4-yl]methyl]urea], in that order: 41% and 6.18.
As for `CC12CC(NC(=O)NCc3ccnc(OC(F)F)c3)(C1)C2` [Example 182, 1-[[2-(difluoromethoxy)pyridin-4-yl]methyl]-3-(3-methyl-1-bicyclo[1.1.1]pentanyl)urea], the Emax is 63% and the pEC50 is 7.05.
For `CC(F)COc1cc(CNC(=O)N[C@H]2C[C@H](C(F)(F)F)C2)ccn1` (stereo partly drawn) [Example 183, 1-[[2-(2-fluoropropoxy)pyridin-4-yl]methyl]-3-[(1r,3r)-3-(trifluoromethyl)cyclobutyl]urea], in that order: 58% and 6.59.
For `C[C@]1(O)CCC[C@@H]1NC(=O)NCc1ccnc(OC(F)F)c1` [Example 184, 1-[[2-(difluoromethoxy)pyridin-4-yl]methyl]-3-[(1S,2S)-2-hydroxy-2-methylcyclopentyl]urea], in that order: 55% and 5.74.
For `O=C(NC(CO)c1ccnc(OCC(F)(F)F)c1)N[C@H]1C[C@H](C(F)(F)F)C1` (stereo partly drawn) [Example 185, 1-[2-hydroxy-1-[2-(2,2,2-trifluoroethoxy)pyridin-4-yl]ethyl]-3-[(1r,3r)-3-(trifluoromethyl)cyclobutyl]urea], in that order: 84% and 6.42.
In turn, `O=C(NCc1ccnc(OC(F)F)c1)Nc1ccc(F)c(F)c1` [Example 186, 1-[[2-(difluoromethoxy)pyridin-4-yl]methyl]-3-(3,4-difluorophenyl)urea] had an Emax of 62% and a pEC50 of 6.26.
For `CC1(C)CC(NC(=O)NCc2ccnc(OC(F)F)c2)C1` [Example 188, 1-[[2-(difluoromethoxy)pyridin-4-yl]methyl]-3-(3,3-dimethylcyclobutyl)urea], in that order: 82% and 7.30.
For `O=C(NCc1ccnc(OC(F)F)c1)N[C@H]1C[C@@H]2[C@H](C1)C2(F)F` [Example 189, 1-[[2-(difluoromethoxy)pyridin-4-yl]methyl]-3-[(1R,3r,5S)-6,6-difluoro-3-bicyclo[3.1.0]hexanyl]urea], in that order: 74% and 6.89.
For `O=C(NCc1ccnc(OC(F)F)c1)N[C@@H]1C[C@H]2CCC[C@H]2C1` [Example 190, 1-[[2-(difluoromethoxy)pyridin-4-yl]methyl]-3-[(2s,3aR,6aS)-1,2,3,3a,4,5,6,6a-octahydropentalen-2-yl]urea], in that order: 85% and 7.52.
`O=C(NCc1ccnc(OC(F)F)c1)NCC1(C(F)F)CCC1` [Example 191, 1-[[2-(difluoromethoxy)pyridin-4-yl]methyl]-3-[[1-(difluoromethyl)cyclobutyl]methyl]urea]: the Emax turned out to be 68% and the negative-log EC50 (pEC50) was 6.35.
For `O=C(NCc1ccnc(OC(F)F)c1)NC1COc2ccccc2C1` (stereo not drawn) [Example 192, 1-[[2-(difluoromethoxy)pyridin-4-yl]methyl]-3-(3,4-dihydro-2H-chromen-3-yl)urea], in that order: 51% and 6.62.
For `C[C@]1(NC(=O)NCc2ccnc(OC(F)F)c2)C[C@@H](C(F)(F)F)C1` [Example 194, 1-[[2-(difluoromethoxy)pyridin-4-yl]methyl]-3-[(1r,3r)-1-methyl-3-(trifluoromethyl)cyclobutyl]urea], in that order: 40% and 5.81.
For `O=C(NCc1ccnc(OC(F)F)c1)N[C@H]1C[C@@H]2CC(F)(F)C[C@@H]2C1` [Example 195, 1-[[2-(difluoromethoxy)pyridin-4-yl]methyl]-3-[(2r,3aR,6aS)-5,5-difluoro-2,3,3a,4,6,6a-hexahydro-1H-pentalen-2-yl]urea], in that order: 51% and 6.54.
For `O=C(NCc1ccnc(OC(F)F)c1)N[C@H]1C[C@@H](C(F)(F)F)C1` [Example 198, 1-[[2-(difluoromethoxy)pyridin-4-yl]methyl]-3-[(1s,3s)-3-(trifluoromethyl)cyclobutyl]urea], the maximal effect (Emax) turned out to be 65% and the pEC50 was 6.40.
For the compound `C[C@@H](F)COc1cc(CNC(=O)N[C@H]2C[C@H](C(F)(F)F)C2)ccn1` [Example 199, 1-[[2-[(2R)-2-fluoropropoxy]pyridin-4-yl]methyl]-3-[(1r,3r)-3-(trifluoromethyl)cyclobutyl]urea], the Emax amounted to 52% and the pEC50 was 6.54.
`CC(F)(F)c1cc(CNC(=O)NC23CC(F)(C2)C3)ccn1` [Example 200, 1-[[2-(1,1-difluoroethyl)pyridin-4-yl]methyl]-3-(3-fluoro-1-bicyclo[1.1.1]pentanyl)urea] had a maximal effect (Emax) of 54% and a negative-log EC50 (pEC50) of 5.31.
For `CC(F)(F)COc1cc(CNC(=O)NC23CC(F)(C2)C3)ccn1` [Example 201, 1-[[2-(2,2-difluoropropoxy)pyridin-4-yl]methyl]-3-(3-fluoro-1-bicyclo[1.1.1]pentanyl)urea], in that order: 60% and 6.68.
Compound `C[C@H](F)COc1cc(CNC(=O)N[C@H]2C[C@H](C(F)(F)F)C2)ccn1` [Example 202, 1-[[2-[(2S)-2-fluoropropoxy]pyridin-4-yl]methyl]-3-[(1r,3r)-3-(trifluoromethyl)cyclobutyl]urea] had an Emax of 57% and a negative logarithm of the EC50 (pEC50) of 6.59.
For `O=C(NCc1ccnc(OCC(F)(F)F)n1)Nc1cccc(Cl)c1` [Example 203, 1-(3-chlorophenyl)-3-[[2-(2,2,2-trifluoroethoxy)pyrimidin-4-yl]methyl]urea], in that order: 42% and 6.68.
For `O=C(NCc1ccnc(OCC(F)(F)F)n1)N[C@H]1C[C@H](C(F)(F)F)C1` [Example 204, 1-[[2-(2,2,2-trifluoroethoxy)pyrimidin-4-yl]methyl]-3-[(1r,3r)-3-(trifluoromethyl)cyclobutyl]urea], in that order: 45% and 6.47.
In turn, `Cc1cc(NC(=O)NC(CO)c2ccnc(OCC(F)(F)F)c2)ccc1F` (stereo not drawn) [Example 205, 1-(4-fluoro-3-methylphenyl)-3-[2-hydroxy-1-[2-(2,2,2-trifluoroethoxy)pyridin-4-yl]ethyl]urea] had an Emax of 64% and a pEC50 of 6.62.
For `O=C(NCc1ccnc(OCF)c1)NC12CCC(F)(CC1)CC2` [Example 208, 1-(4-fluoro-1-bicyclo[2.2.2]octanyl)-3-[[2-(fluoromethoxy)pyridin-4-yl]methyl]urea], in that order: 58% and 6.33.
For `O=C(NCc1ccnc(OC2CC(F)(F)C2)c1)N[C@H]1C[C@H](C(F)(F)F)C1` [Example 209, 1-[[2-(3,3-difluorocyclobutyl)oxypyridin-4-yl]methyl]-3-[(1r,3r)-3-(trifluoromethyl)cyclobutyl]urea], the maximal effect (Emax) stood at 71% and the pEC50 was 6.31.
For `O=C(NCc1ccnc(OCC(F)(F)F)c1)NCC1(F)CCC1` [Example 210, 1-[(1-fluorocyclobutyl)methyl]-3-[[2-(2,2,2-trifluoroethoxy)pyridin-4-yl]methyl]urea], in that order: 48% and 6.80.
For `O=C(NCc1ccnc(OC(F)F)c1)N[C@H]1CC[C@@H](C(F)(F)F)CC1` [Example 211, 1-[[2-(difluoromethoxy)pyridin-4-yl]methyl]-3-[(1s,4s)-4-(trifluoromethyl)cyclohexyl]urea], in that order: 61% and 6.49.
For `C[Si](C)(C)CCNC(=O)NCc1ccnc(OC(F)F)c1` [Example 212, 1-[[2-(difluoromethoxy)pyridin-4-yl]methyl]-3-(2-trimethylsilylethyl) urea], in that order: 82% and 6.40.
